Test results reported in ChEMBL document CHEMBL5143740, “Discovery of Novel Phosphoinositide-3-Kinase α Inhibitors with High Selectivity, Excellent Bioavailability, and Long-Acting Efficacy for Gastric Cancer” (J Med Chem, 2022).
The source made the active and inactive calls. No cut-off for these calls is given here.

How the values were obtained:
[1] = molecular target: Phosphatidylinositol 4,5-bisphosphate 3-kinase catalytic subunit alpha isoform (Homo sapiens, UniProt P42336); assay: Inhibition of PI3Kalpha (unknown origin) using PIP2 as substrate in presence of ATP measured after 1 hr by ADP-Glo assay
[2] = molecular target: Phosphatidylinositol 4,5-bisphosphate 3-kinase catalytic subunit beta isoform (Homo sapiens, UniProt P42338); assay: Inhibition of PI3Kbeta (unknown origin) in presence of [33P]-ATP incubated for 2 hrs by hotspot kinase assay
[3] = species: Homo sapiens; assay: Selectivity index, ratio of IC50 for inhibition of PI3Kbeta (unknown origin) to IC50 for inhibition of PI3Kalpha (unknown origin)
[4] = species: Homo sapiens; assay: Selectivity index, ratio of IC50 for inhibition of PI3Kdelta (unknown origin) to IC50 for inhibition of PI3Kalpha (unknown origin)
[5] = species: Homo sapiens; assay: Selectivity index, ratio of IC50 for inhibition of PI3Kgamma (unknown origin) to IC50 for inhibition of PI3Kalpha (unknown origin)
[6] = tested on: SK-OV-3; assay: Antiproliferative activity against human SK-OV-3 cells assessed as inhibition of cell growth incubated for 72 hrs by CCK8 assay; type: functional, cell-based; conditions: SK-OV-3, 72 h
[7] = tested on: PC-3; assay: Antiproliferative activity against human PC-3 cells assessed as inhibition of cell growth incubated for 72 hrs by CCK8 assay; type: functional, cell-based; conditions: PC-3, 72 h
[8] = tested on: MCF7; assay: Antiproliferative activity against human MCF7 cells assessed as inhibition of cell growth incubated for 72 hrs by CCK8 assay; type: functional, cell-based; conditions: MCF7, 72 h
[9] = tested on: MDA-MB-231; assay: Antiproliferative activity against human MDA-MB-231 cells assessed as inhibition of cell growth incubated for 72 hrs by CCK8 assay; type: functional, cell-based; conditions: MDA-MB-231, 72 h
[10] = tested on: RPMI-8226; assay: Antiproliferative activity against human RPMI-8226 cells assessed as inhibition of cell growth incubated for 72 hrs by CCK8 assay; type: functional, cell-based; conditions: RPMI-8226, 72 h
[11] = tested on: K562; assay: Antiproliferative activity against human K562 cells assessed as inhibition of cell growth incubated for 72 hrs by CCK8 assay; type: functional, cell-based; conditions: K562, 72 h
[12] = tested on: U-251; assay: Antiproliferative activity against human U-251 cells assessed as inhibition of cell growth incubated for 72 hrs by CCK8 assay; type: functional, cell-based; conditions: U-251, 72 h
[13] = tested on: MGC-803; assay: Induction of apoptosis in human MGC-803 cells assessed as viable cells at 2 uM incubated for 36 hrs by annexin V-FITC based flow cytometry analysis (reference value: 94.51 %); type: functional; conditions: read-out: Activity
[14] = tested on: MGC-803; assay: Induction of apoptosis in human MGC-803 cells assessed as early apoptotic cells at 2 uM incubated for 36 hrs by annexin V-FITC based flow cytometry analysis (reference value: 2.49 %); type: functional
[15] = tested on: MGC-803; assay: Induction of apoptosis in human MGC-803 cells assessed as late apoptotic cells at 2 uM incubated for 36 hrs by annexin V-FITC based flow cytometry analysis (reference value: 2.61 %); type: functional
[16] = tested on: MGC-803; assay: Induction of apoptosis in human MGC-803 cells assessed as necrotic cells at 2 uM incubated for 36 hrs by annexin V-FITC based flow cytometry analysis (reference value: […]); type: functional
[17] = tested on: MGC-803; assay: Induction of apoptosis in human MGC-803 cells assessed as early apoptotic cells at 4 uM incubated for 36 hrs by annexin V-FITC based flow cytometry analysis (reference value: 2.49 %); type: functional
[18] = tested on: MGC-803; assay: Induction of apoptosis in human MGC-803 cells assessed as necrotic cells at 4 uM incubated for 36 hrs by annexin V-FITC based flow cytometry analysis (reference value: […]); type: functional
[19] = tested on: MGC-803; assay: Induction of apoptosis in human MGC-803 cells assessed as necrotic cells at 8 uM incubated for 36 hrs by annexin V-FITC based flow cytometry analysis (reference value: […]); type: functional
[20] = tested on: MGC-803; assay: Inhibition of cell migration in human MGC-803 cells at 2 to 8 uM incubated for 24 hrs by crystal violet staining based transwell migration assay; type: functional; conditions: dose 2-8 µM
[21] = tested on: MGC-803; assay: Inhibition of cell invasion in human MGC-803 cells at 2 to 8 uM incubated for 24 hrs by microscopic analysis; type: functional, cell-based; conditions: dose 2-8 µM
[22] = tested on: MGC-803; assay: Downregulation of PI3Kalpha protein expression in human MG C-803 cells at 2 to 8 uM by Western blotting analysis; type: functional, cell-based; conditions: dose 2-8 µM
[23] = tested on: MGC-803; assay: Inhibition of PI3K signalling pathway in human MGC-803 cells assessed as reduction in P70S6K phosphorylation at 2 to 8 uM by Western blotting analysis; type: cell-based; conditions: dose 2-8 µM
[24] = Half life in Sprague-Dawley rat at 1 mg/kg, iv measured after 24 hrs; type: ADME, organism-based; conditions: in vivo
[25] = Tmax in Sprague-Dawley rat at 1 mg/kg, iv measured after 24 hrs; type: ADME, organism-based; conditions: in vivo
[26] = Tmax in Sprague-Dawley rat at 10 mg/kg, po measured after 24 hrs; type: ADME, organism-based; conditions: in vivo
[27] = Cmax in Sprague-Dawley rat at 1 mg/kg, iv measured after 24 hrs; type: ADME, organism-based; set-up: time 24 hrs, dose 1 mg/kg, route iv; conditions: in vivo
[28] = Cmax in Sprague-Dawley rat at 10 mg/kg, po measured after 24 hrs; type: ADME, organism-based; set-up: time 24 hrs, dose 10 mg/kg, route po; conditions: in vivo
[29] = AUC (0 to t) in Sprague-Dawley rat at 1 mg/kg, iv measured after 24 hrs; type: ADME, organism-based; set-up: time 24 hrs, dose 1 mg/kg, route iv; conditions: in vivo
[30] = AUC (0 to t) in Sprague-Dawley rat at 10 mg/kg, po measured after 24 hrs; type: ADME, organism-based; set-up: dose 10 mg/kg, time 24 hrs, route po; conditions: in vivo
[31] = AUC (0 to infinitive) in Sprague-Dawley rat at 1 mg/kg, iv measured after 24 hrs; type: ADME, organism-based; set-up: time 24 hrs, dose 1 mg/kg, route iv; conditions: in vivo
[32] = Clearance in Sprague-Dawley rat at 1 mg/kg, iv measured after 24 hrs; type: ADME, organism-based; conditions: in vivo
[33] = Oral bioavailability in Sprague-Dawley rat at 10 mg/kg measured after 24 hrs; type: ADME, organism-based; conditions: in vivo
[34] = tested on: MGC-803; assay: Antitumor activity against human MGC-803 cells xenografted in BALB/c nude mouse assessed as reduction in tumor volume at 30 mg/kg, po administered every day for 3 weeks by vernier caliper method; type: functional, organism-based
[35] = tested on: MGC-803; assay: Antitumor activity against human MGC-803 cells xenografted in BALB/c nude mouse assessed as reduction in tumor volume at 30 mg/kg, po administered every day for 3 weeks in presence of taxol by vernier caliper method; type: functional, organism-based
[36] = tested on: MGC-803; assay: Antitumor activity against human MGC-803 cells xenografted in BALB/c nude mouse assessed as tumor growth inhibition at 10 mg/kg, ip administered every day for 3 weeks; type: functional; conditions: MGC-803, 504 h, read-out: TGI
[37] = tested on: MGC-803; assay: Antitumor activity against human MGC-803 cells xenografted in BALB/c nude mouse assessed as tumor growth inhibition at 30 mg/kg, po administered every day for 3 weeks in presence of taxol; type: functional; conditions: MGC-803, 504 h, read-out: TGI
[38] = Toxicity in BALB/c mouse xenografted with human MG C-803cells assessed as effect on body weight at 10 mg/kg, IP administered every day for 3 week; type: organism-based; conditions: in vivo, 504 h, time 3 weeks
[39] = Toxicity in BALB/c mouse xenografted with human MG C-803cells assessed as effect on body weight at 30 mg/kg, po administered every day for 3 week in presence of taxol; type: organism-based; conditions: in vivo, 504 h, time 3 weeks
[40] = molecular target: Phosphatidylinositol 4,5-bisphosphate 3-kinase catalytic subunit gamma isoform (Homo sapiens, UniProt P48736)
Sequence of Phosphatidylinositol 4,5-bisphosphate 3-kinase catalytic subunit gamma isoform (P48736 whole entry, canonical isoform): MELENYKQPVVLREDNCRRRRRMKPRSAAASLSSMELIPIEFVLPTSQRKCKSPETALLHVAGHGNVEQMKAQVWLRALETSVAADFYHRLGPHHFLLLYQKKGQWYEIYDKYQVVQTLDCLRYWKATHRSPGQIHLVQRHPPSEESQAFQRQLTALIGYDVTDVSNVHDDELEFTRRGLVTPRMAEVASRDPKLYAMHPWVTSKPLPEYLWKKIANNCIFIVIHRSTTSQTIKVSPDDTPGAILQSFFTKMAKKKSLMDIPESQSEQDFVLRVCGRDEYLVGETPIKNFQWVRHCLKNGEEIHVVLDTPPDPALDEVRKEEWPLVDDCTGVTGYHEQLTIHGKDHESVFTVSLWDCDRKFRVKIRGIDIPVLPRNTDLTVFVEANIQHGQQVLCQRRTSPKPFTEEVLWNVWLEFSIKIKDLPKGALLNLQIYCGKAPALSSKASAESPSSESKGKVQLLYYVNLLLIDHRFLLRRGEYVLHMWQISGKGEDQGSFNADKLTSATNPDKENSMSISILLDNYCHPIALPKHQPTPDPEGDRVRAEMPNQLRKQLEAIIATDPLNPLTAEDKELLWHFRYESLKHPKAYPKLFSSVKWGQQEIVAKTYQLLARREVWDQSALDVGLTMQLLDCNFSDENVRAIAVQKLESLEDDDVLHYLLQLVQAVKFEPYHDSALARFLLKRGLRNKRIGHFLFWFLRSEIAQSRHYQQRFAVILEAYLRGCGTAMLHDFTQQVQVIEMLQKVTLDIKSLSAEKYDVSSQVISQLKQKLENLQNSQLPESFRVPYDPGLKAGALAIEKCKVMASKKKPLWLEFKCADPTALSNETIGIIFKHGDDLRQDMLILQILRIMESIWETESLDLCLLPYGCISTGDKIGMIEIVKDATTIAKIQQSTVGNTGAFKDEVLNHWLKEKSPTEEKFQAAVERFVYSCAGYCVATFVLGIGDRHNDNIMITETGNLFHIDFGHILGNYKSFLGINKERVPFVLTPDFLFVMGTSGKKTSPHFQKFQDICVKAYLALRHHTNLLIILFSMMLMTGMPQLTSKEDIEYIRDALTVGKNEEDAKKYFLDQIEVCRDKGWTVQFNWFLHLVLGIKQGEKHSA

Sequence of Phosphatidylinositol 4,5-bisphosphate 3-kinase catalytic subunit beta isoform (P42338 whole entry, canonical isoform): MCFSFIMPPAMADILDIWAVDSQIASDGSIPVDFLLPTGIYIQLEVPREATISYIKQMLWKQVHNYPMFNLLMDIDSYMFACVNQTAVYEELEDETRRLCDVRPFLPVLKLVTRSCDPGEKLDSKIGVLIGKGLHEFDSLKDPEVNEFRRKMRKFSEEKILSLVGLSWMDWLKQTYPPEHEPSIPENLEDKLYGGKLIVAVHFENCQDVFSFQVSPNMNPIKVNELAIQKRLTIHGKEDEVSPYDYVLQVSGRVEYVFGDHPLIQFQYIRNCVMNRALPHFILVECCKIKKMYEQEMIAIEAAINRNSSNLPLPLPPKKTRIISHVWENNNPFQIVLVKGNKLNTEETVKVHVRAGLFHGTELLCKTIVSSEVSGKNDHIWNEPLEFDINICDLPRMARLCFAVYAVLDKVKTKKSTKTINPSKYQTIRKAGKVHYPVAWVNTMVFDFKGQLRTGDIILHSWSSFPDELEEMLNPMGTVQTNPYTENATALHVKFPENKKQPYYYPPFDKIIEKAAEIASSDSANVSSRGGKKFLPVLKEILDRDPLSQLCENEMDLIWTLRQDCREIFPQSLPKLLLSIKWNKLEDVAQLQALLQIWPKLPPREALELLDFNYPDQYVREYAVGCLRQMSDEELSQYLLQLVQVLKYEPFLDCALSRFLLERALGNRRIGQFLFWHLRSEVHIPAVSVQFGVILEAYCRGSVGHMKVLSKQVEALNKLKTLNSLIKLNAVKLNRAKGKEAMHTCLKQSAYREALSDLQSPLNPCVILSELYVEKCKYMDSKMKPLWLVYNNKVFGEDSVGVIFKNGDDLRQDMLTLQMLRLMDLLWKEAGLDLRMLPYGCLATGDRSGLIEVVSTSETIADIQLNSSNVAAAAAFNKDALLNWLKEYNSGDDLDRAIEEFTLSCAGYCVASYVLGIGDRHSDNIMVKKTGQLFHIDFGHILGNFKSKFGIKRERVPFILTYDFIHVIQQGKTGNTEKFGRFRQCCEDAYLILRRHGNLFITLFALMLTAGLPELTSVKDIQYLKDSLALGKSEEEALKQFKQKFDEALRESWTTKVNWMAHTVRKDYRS
Sequence of Phosphatidylinositol 4,5-bisphosphate 3-kinase catalytic subunit alpha isoform (P42336 whole entry, canonical isoform): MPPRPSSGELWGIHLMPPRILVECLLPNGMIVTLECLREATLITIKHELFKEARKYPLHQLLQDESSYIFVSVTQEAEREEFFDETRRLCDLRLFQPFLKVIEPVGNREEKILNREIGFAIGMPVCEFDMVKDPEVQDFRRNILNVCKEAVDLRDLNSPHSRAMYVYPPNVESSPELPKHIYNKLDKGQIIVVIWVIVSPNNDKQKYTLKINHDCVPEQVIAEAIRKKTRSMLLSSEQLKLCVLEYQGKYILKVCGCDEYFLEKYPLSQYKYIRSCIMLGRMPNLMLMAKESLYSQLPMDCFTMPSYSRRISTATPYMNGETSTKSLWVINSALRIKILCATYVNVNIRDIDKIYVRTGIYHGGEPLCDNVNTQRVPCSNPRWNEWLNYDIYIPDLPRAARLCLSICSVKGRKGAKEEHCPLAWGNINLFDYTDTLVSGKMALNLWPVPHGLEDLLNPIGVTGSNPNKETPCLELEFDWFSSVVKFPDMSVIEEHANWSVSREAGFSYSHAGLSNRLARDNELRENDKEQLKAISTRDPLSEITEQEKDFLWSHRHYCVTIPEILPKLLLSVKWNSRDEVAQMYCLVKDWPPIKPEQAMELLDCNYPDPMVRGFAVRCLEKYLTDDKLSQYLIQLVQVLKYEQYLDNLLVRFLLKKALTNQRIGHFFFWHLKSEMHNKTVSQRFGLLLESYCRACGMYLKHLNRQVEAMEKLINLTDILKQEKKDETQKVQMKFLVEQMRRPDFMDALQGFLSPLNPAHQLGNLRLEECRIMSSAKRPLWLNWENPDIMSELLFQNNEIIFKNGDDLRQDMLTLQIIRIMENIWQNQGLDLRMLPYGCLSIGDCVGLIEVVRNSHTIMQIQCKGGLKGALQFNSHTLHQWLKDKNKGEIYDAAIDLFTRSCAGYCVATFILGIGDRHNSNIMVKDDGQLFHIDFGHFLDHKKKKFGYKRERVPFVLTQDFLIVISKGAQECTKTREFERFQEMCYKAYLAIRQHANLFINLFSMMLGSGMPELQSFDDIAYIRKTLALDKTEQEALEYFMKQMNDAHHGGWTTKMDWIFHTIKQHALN

## Nc1nc2cc(-c3nc(N4CCOCC4)nc(N4CCOCC4)n3)ccc2o1
[1]
  IC50: 0.0044 µM
[2]
  IC50: 0.146 µM
[3]
  Ratio IC50: 33
[4]
  Ratio IC50: 34
[5]
  Ratio IC50: 29
[6]
  IC50: 0.43 µM
[7]
  IC50: 0.43 µM
[8]
  IC50: 0.43 µM
[9]
  IC50: 0.43 µM
[10]
  IC50: 0.43 µM
[11]
  IC50: 0.43 µM
[12]
  IC50: 0.43 µM
[13]
  viability at 2 µM: 87%
[14]
  Activity: 7.52%
[15]
  Activity: 4.55%
[16]
  Activity: 0.95%
[17]
  Activity: 31.31%
[18]
  Activity: 1.11%
[19]
  Activity: 1.08%
[20]
  inhibition: Active
[21]
  inhibition: Active
[22]
  inhibition: Active
[23]
  inhibition: Active
[24]
  half-life: 6.29 h
[25]
  Tmax: 10.8 s
[26]
  Tmax: 9.33 h
[27]
  Cmax: 455 ng/mL
[28]
  Cmax: 2260 ng/mL
[29]
  AUC(0-t) at 24 h: 2240 ng·h/mL
[30]
  AUC(0-t) at 24 h: 36700 ng·h/mL
[31]
  AUC(0-inf): 2920 ng·h/mL
[32]
  clearance: 5.72 mL/min/kg
[33]
  bioavailability: 130%
[34]
  Activity: Active
[35]
  Activity: Active
[36]
  inhibition in vivo at 10 mg/kg: 41.5%
[37]
  inhibition in vivo at 30 mg/kg: 63.9%
[38]
  Activity: Non-Toxic
[39]
  Activity: Non-Toxic
[40]
  IC50: 0.128 µM
